Experimental data as given in PubChem BioAssay AID1963848 (Molecular Pharmacology Branch, DTP, NCI, 2024).
pIC50: −log10 of the molar value.

Tested on: 379773-124-R-J2-PDC spheroid viability
Assay: Anticancer human tumor 379773-124-R-J2-PDC patient-derived endometrial carcinoma cell line growth inhibition [POLQ]
Conditions: spheroids with HUVEC and MSC; for pIC50: curve of first compound; for viability, T/C: stronger effect = lower value
Description: Multicellular complex tumor spheroid response to Polymerase (POL) inhibitors (novobiocin, ART-558, RP6685) in combination with a variety of drugs and investigational agents in selected tumor cell lines
The POL inhibitors (novobiocin, ART-558, and RP6685) were evaluated both individually and in combination with standard of care and investigational anticancer small molecules within a complex spheroid model of solid tumors. . Complex spheroids include a stromal component modeled by human endothelial cells (HUVEC) and fibroblasts modeled by human mesenchymal stem cells (MSCs). The concentration ranges selected for each drug and investigational agent were based upon clinically achievable concentrations if the clinical Cmax of the agent was known.
Compounds. The drugs and investigational agents: novobiocin (NSC847541), ART-558 (NSC835418), RP-6685 (NSC848927), peposertib (NSC802822), ceralasertib (NSC780249), elimusertib (NSC800525), camonsertib (NSC841442), AZD-1390 (NSC803789), olaparib (NSC753686), talazoparib (NSC767125), rucaparib (NSC756644), sotorasib (NSC818433), MRTX-1133 (NSC836407), SN-38 (NSC673596), topotecan (NSC609699), epotoside (NSC141540), doxorubicin (NSC123127), gemcitabine (NSC613327), 5-fluorouracil (NSC19893), paclitaxel (NSC125973), vemurafenib (NSC761431), MSA-2 (NSC828583), SN-011 (NSC837082), adavosertib (NSC754352), prexasertib (NSC758257), carboplatin (NSC241240) and oxaliplatin (NSC266046), were obtained from the National Cancer Institute (NCI) Developmental Therapeutics Program Chemical Repository (21). The FDA-approved anticancer drug set is available from the Developmental Therapeutics Program at https://dtp.cancer.gov/organization/dscb/obtaining/. […] The stock solutions were prepared in dimethyl sulfoxide (DMSO, Sigma-Aldrich, St. Louis, MO, cat. D2650), except for the platinum compounds which were prepared in saline (Quality Biological, Gaithersburg, MD, cat. 114-055-101), at 800-fold the tested concentration and stored at -70 degrees C prior to their use. All drugs and investigational agents were tested over a range starting from a high concentration at or near the clinical Cmax and decreasing in half-log increments. If the clinical Cmax for an agent had not been determined, the highest concentration tested was 10 microM, except for SN-38, which was tested at a high concentration of 1 microM.
Cell Culture. All cells were maintained in an incubator at 37 degrees C and 5% CO2 with 95% humidity. The PDC lines were cultured according to standard operating procedures established by the NCI PDMR (https://pdmr.cancer.gov). Table 3 of the manuscript, lists the cell lines along with the number of the three cell types plated to form the mct-spheroids and media for tumor cell growth. After thawing, all PDC lines, except 997537-175-T-J1-PDC and 415267-285-R-J2-PDC, were cultured in Matrigel-coated flasks prepared with a working solution of 1X Ham's F-12 nutrient mix, without supplementation (Thermo Fisher Scientific, cat. 11765054), 100 U/mL penicillin-streptomycin (Thermo Fisher Scientific, cat. 15140122), and 2.5% Matrigel (Corning Inc., Corning, NY, cat. 354248) for the first three passages. The two PDC lines 997537-175-T-J1-PDC and 415267-285-R-J2-PDC were cultured on uncoated flasks. The 857933-349-R-J2-PDC line was cultured in 6C/Colon 1B media containing advanced DMEM/F-12 (Thermo Fisher Scientific, cat. 12634028), 10 mM HEPES (Thermo Fisher Scientific, cat. 15630080), 1X GlutaMAX supplement (Thermo Fisher Scientific, cat. 35050061), 0.1 mg/mL primocin (InvivoGen, San Diego, CA, cat. ant-pm-2), 10% defined fetal bovine serum, heat inactivated (HyClone Laboratories Inc., Logan, UT, cat. SH30070.03HI), 50% L-WRN conditioned media (ATCC, cat. CRL-3276), 1.25 mM N-Acetyl-L-cysteine (Sigma-Aldrich, cat. A9165), 10 mM nicotinamide (Sigma-Aldrich, cat. N0636), 1X B-27 supplement (Thermo Fisher Scientific, cat. 17504044), 1X N-2 supplement (Thermo Fisher Scientific, cat. […]

[1] = second compound 0.0316 µM, first compound 0.0316 µM
[2] = second compound 0.0316 µM, first compound 0.1 µM
[3] = second compound 0.0316 µM, first compound 0.316 µM
[4] = second compound 0.0316 µM, first compound 1 µM
[5] = second compound 0.0316 µM, first compound 3.16 µM
[6] = second compound 0.0316 µM, first compound 10 µM
[7] = second compound 0.1 µM, first compound 0.0316 µM
[8] = second compound 0.1 µM, first compound 0.1 µM
[9] = second compound 0.1 µM, first compound 0.316 µM
[10] = second compound 0.1 µM, first compound 1 µM
[11] = second compound 0.1 µM, first compound 3.16 µM
[12] = second compound 0.1 µM, first compound 10 µM
[13] = second compound 0.316 µM, first compound 0.0316 µM
[14] = second compound 0.316 µM, first compound 0.1 µM
[15] = second compound 0.316 µM, first compound 0.316 µM
[16] = second compound 0.316 µM, first compound 1 µM
[17] = second compound 0.316 µM, first compound 3.16 µM
[18] = second compound 0.316 µM, first compound 10 µM
[19] = second compound 1 µM, first compound 0.0316 µM
[20] = second compound 1 µM, first compound 0.1 µM
[21] = second compound 1 µM, first compound 0.316 µM
[22] = second compound 1 µM, first compound 1 µM
[23] = second compound 1 µM, first compound 3.16 µM
[24] = second compound 1 µM, first compound 10 µM
[25] = second compound 3.16 µM, first compound 0.0316 µM
[26] = second compound 3.16 µM, first compound 0.1 µM
[27] = second compound 3.16 µM, first compound 0.316 µM
[28] = second compound 3.16 µM, first compound 1 µM
[29] = second compound 3.16 µM, first compound 3.16 µM
[30] = second compound 3.16 µM, first compound 10 µM
[31] = second compound 10 µM, first compound 0.0316 µM
[32] = second compound 10 µM, first compound 0.1 µM
[33] = second compound 10 µM, first compound 0.316 µM
[34] = second compound 10 µM, first compound 1 µM
[35] = second compound 10 µM, first compound 3.16 µM
[36] = second compound 10 µM, first compound 10 µM
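Further: spheroids exposed to drugs for seven days before readout.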
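Wherever viability, T/C is given: percent viability relative to DMSO vehicle control taken as 100%.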

Compound: C=CC(=O)N1CCN(c2nc(=O)n(-c3c(C)ccnc3C(C)C)c3nc(-c4c(O)cccc4F)c(F)cc23)C(C)C1 (centres undefined) + Cc1cccc(N(C)C(=O)C2C(O)CCN2c2nc(C)cc(C(F)(F)F)c2C#N)c1
- pIC50 (second compound 0.0316 µM): < 5.00
- pIC50 (second compound 0.1 µM): < 5.00
- pIC50 (second compound 0.316 µM): < 5.00
- pIC50 (second compound 1 µM): < 5.00
- pIC50 (second compound 3.16 µM): < 5.00
- pIC50 (second compound 10 µM): < 5.00
- viability, T/C [1]: 88.5%
- viability, T/C [2]: 89.8%
- viability, T/C [3]: 82%
- viability, T/C [4]: 105%
- viability, T/C [5]: 77.1%
- viability, T/C [6]: 76.2%
- viability, T/C [7]: 84.9%
- viability, T/C [8]: 77.8%
- viability, T/C [9]: 87.7%
- viability, T/C [10]: 74.4%
- viability, T/C [11]: 80.4%
- viability, T/C [12]: 86.1%
- viability, T/C [13]: 91%
- viability, T/C [14]: 70.4%
- viability, T/C [15]: 82.8%
- viability, T/C [16]: 85%
- viability, T/C [17]: 95.8%
- viability, T/C [18]: 75.7%
- viability, T/C [19]: 80%
- viability, T/C [20]: 81.1%
- viability, T/C [21]: 95.2%
- viability, T/C [22]: 75.2%
- viability, T/C [23]: 87.4%
- viability, T/C [24]: 64.2%
- viability, T/C [25]: 84.4%
- viability, T/C [26]: 90.3%
- viability, T/C [27]: 87.3%
- viability, T/C [28]: 86.3%
- viability, T/C [29]: 86.6%
- viability, T/C [30]: 78.9%
- viability, T/C [31]: 78%
- viability, T/C [32]: 82.1%
- viability, T/C [33]: 91.8%
- viability, T/C [34]: 73.5%
- viability, T/C [35]: 82.8%
- viability, T/C [36]: 84.3%

Compound: CNCc1ccc(-c2[nH]c3cc(F)cc4c3c2CCNC4=O)cc1 + Cc1cccc(N(C)C(=O)C2C(O)CCN2c2nc(C)cc(C(F)(F)F)c2C#N)c1
- pIC50 (second compound 0.0316 µM): < 5.00
- pIC50 (second compound 0.1 µM): < 5.00
- pIC50 (second compound 0.316 µM): < 5.00
- pIC50 (second compound 1 µM): < 5.00
- pIC50 (second compound 3.16 µM): < 5.00
- pIC50 (second compound 10 µM): < 5.00
- viability, T/C [1]: 89.5%
- viability, T/C [2]: 74.2%
- viability, T/C [3]: 88.5%
- viability, T/C [4]: 83.2%
- viability, T/C [5]: 72.7%
- viability, T/C [6]: 58.3%
- viability, T/C [7]: 90.4%
- viability, T/C [8]: 85.8%
- viability, T/C [9]: 75.2%
- viability, T/C [10]: 79.5%
- viability, T/C [11]: 80.4%
- viability, T/C [12]: 66.9%
- viability, T/C [13]: 93.3%
- viability, T/C [14]: 77.5%
- viability, T/C [15]: 83.1%
- viability, T/C [16]: 82.9%
- viability, T/C [17]: 75.8%
- viability, T/C [18]: 57.6%
- viability, T/C [19]: 78.2%
- viability, T/C [20]: 79.7%
- viability, T/C [21]: 87.1%
- viability, T/C [22]: 73.5%
- viability, T/C [23]: 73.8%
- viability, T/C [24]: 60.3%
- viability, T/C [25]: 86.5%
- viability, T/C [26]: 73.6%
- viability, T/C [27]: 79.8%
- viability, T/C [28]: 83.1%
- viability, T/C [29]: 82%
- viability, T/C [30]: 54.8%
- viability, T/C [31]: 74.8%
- viability, T/C [32]: 70.3%
- viability, T/C [33]: 72.7%
- viability, T/C [34]: 69.6%
- viability, T/C [35]: 77.3%
- viability, T/C [36]: 61.1%
